Laboratory results from article PMC11949107, “Polyunsaturated fatty acids and their endocannabinoid-related metabolites activity at human TRPV1 and TRPA1 ion channels expressed in HEK-293 cells” (PeerJ, 2025).
Where “and” joins values, the source holds several entries; their conditions need not be identical. Equal entries are not always repeated.

How the values were obtained:
human TRPV1 = target: T1, human TRPV1 (Homo sapiens, UniProt Q8NER1); experiment: Calcium 5 dye [Ca]i assay in HEK-293 Flp-In T-REx cells expressing TRPV1 (agonist response); type: cell-based; conditions: for Change in Ca5 fluorescence, individual experiments (CRC raw data): TRPV1 cells
T1 construct: Life Technologies (cells); host or cells: Flp-In T-REx HEK-293
Outline: (§1)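 Tetracycline-induced (1 µg ml^−1, 4 h) HEK-293 T-REx cells loaded with Calcium 5 dye plus 1.25 mM probenecid for 1 h; agonist added after 1 min baseline (0.1% DMSO final), fluorescence (485/525 nm) read every 2 s for 5 min at 37 °C. Response as % change from baseline, solvent-subtracted; EC50/Emax from three-parameter logistic fit, given as pEC50.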

HEK-293 EV cells = experiment: Calcium 5 dye [Ca]i assay in HEK-293 empty vector (EV) cells; type: cell-based, human; conditions: 10 µM; HEK-293 EV cells; percentage of predrug baseline
Outline: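 Tetracycline at 1 µg ml^−1 was added 4 h before testing; cells were loaded with Calcium 5 dye for 1 h and read at 37 °C, with drug added after 1 min baseline (final 0.1% DMSO). The response was the % change from the 60 s baseline after solvent subtraction, and EC50/Emax came from a three-parameter logistic fit, reported as pEC50.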

human TRPA1 = target: T2, human TRPA1 (Homo sapiens, UniProt O75762); experiment: Calcium 5 dye [Ca]i assay in HEK-293 Flp-In T-REx cells expressing TRPA1 (agonist response); type: cell-based; conditions: for [Ca]i response (change in fluorescence), individual replicates: sheet Figure 3(E)
T2 construct: Life Technologies (cells); host or cells: Flp-In T-REx HEK-293
Outline: as §1

T2 sequence (O75762 whole entry): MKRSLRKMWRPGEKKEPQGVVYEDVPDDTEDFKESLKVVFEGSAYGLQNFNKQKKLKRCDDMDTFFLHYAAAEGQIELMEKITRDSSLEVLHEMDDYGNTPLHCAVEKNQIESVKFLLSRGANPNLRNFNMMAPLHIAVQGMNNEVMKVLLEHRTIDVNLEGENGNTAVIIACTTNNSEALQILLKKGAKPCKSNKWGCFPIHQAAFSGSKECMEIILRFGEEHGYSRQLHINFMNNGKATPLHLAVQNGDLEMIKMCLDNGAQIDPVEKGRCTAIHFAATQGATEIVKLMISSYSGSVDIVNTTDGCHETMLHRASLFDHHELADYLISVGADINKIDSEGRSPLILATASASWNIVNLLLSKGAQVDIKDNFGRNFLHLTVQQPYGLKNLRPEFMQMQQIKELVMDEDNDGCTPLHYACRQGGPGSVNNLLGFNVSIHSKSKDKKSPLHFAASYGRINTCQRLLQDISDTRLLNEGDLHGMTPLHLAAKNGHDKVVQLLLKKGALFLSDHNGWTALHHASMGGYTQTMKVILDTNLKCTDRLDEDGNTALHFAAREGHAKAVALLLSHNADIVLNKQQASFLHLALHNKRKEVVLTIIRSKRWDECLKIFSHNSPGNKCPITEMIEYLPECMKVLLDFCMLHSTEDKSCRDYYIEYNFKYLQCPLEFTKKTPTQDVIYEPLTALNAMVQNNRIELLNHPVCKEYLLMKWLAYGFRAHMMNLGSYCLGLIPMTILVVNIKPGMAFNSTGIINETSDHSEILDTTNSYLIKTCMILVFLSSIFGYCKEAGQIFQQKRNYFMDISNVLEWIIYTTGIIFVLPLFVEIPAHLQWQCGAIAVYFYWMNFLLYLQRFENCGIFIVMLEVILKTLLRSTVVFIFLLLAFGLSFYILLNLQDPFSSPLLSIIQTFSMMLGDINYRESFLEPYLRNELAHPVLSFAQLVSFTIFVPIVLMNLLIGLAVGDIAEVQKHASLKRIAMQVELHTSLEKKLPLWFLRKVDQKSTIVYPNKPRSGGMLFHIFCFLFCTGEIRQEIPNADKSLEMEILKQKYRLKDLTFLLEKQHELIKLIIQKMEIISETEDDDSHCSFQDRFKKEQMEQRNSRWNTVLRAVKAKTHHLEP
T1 sequence (Q8NER1 whole entry): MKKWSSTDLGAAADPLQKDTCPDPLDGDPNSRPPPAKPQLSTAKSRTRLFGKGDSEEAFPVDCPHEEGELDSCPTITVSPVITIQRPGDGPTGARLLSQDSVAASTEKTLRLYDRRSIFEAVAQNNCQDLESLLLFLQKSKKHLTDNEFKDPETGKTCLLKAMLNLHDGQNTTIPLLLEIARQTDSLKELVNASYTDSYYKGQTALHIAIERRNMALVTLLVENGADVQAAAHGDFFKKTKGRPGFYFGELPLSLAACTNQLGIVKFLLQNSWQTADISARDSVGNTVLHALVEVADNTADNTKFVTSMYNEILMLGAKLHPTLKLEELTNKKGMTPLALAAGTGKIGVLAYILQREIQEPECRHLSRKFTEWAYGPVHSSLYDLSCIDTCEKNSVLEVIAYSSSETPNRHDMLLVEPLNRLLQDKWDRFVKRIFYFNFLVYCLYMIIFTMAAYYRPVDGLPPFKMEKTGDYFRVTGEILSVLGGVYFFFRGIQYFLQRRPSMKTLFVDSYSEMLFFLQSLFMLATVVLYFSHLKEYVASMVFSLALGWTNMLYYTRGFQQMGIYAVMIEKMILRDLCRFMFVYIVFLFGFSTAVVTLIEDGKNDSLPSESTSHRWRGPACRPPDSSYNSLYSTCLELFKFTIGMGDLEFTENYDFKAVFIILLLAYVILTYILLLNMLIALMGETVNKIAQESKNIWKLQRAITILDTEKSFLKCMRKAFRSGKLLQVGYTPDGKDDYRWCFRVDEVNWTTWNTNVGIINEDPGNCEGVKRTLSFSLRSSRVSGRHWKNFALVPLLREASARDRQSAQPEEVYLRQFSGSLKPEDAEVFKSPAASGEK

## CCCCC/C=C\C/C=C\C/C=C\C/C=C\CCCCOC(CO)CO [2-AG ether, 2-arachidonoylglycerol ether]
Human TRPV1; 10 µM
  Elevation of [Ca]i in HEK-293 TRPV1 cells compared with HEK-293 EV cells: did not produce a notable change
Human TRPV1; 10 µM, HEK-293 TRPV1 cells, percentage of predrug baseline
  Change of Ca5 fluorescence, Mean ± SEM, TRPV1 (10 µM): 39 ± 24%
Human TRPV1; 30 µM, one-way ANOVA comparison with capsaicin 10 µM
  TRPV1 response, Mean± SEM (N): 63± 56
Human TRPV1; highest tested concentration (30 µM) or derived from concentration-response curves (DHEA, AEA, NADA, capsaicin)
  Emax ± SEM % TRPV1 (30 µM): 63 ± 23%
Human TRPV1; log concentration -4.52288 (M)
  Change in Ca5 fluorescence, individual experiments (CRC raw data): 153.653 and 87.759 and 41.6511 and 12.8054 and 5.8133 and 75.505
Human TRPV1; log concentration -5 (M)
  Change in Ca5 fluorescence, individual experiments (CRC raw data): 155.318 and 30.8581 and 23.9661 and 3.174 and 0.3103 and 20.3939
Human TRPV1; log concentration -5.52288 (M)
  Change in Ca5 fluorescence, individual experiments (CRC raw data): 16.5791 and 3.033 and 7.578 and 1.888 and 0.6433 and 11.7313
Human TRPV1; log concentration -6 (M)
  Change in Ca5 fluorescence, individual experiments (CRC raw data): 7.918 and 3.6522 and 9.605 and 2.557 and 2.906 and 1.314
Human TRPV1; log concentration -6.52288 (M)
  Change in Ca5 fluorescence, individual experiments (CRC raw data): 3.121 and 1.724 and 12.4457 and 2.326 and 0.7415 and 2.165
Human TRPV1; log concentration -7 (M)
  Change in Ca5 fluorescence, individual experiments (CRC raw data): 2.256 and 4.13 and 8.499 and 1.026 and 2.717 and 1.813
HEK-293 EV cells
  Change of Ca5 fluorescence, Mean ± SEM, EV (10 µM): 8 ± 2%
Human TRPA1; 10 µM (cinnamaldehyde 300 µM)
  Elevation of [Ca]i in HEK-293 TRPA1 cells compared with HEK-293 EV cells: did not produce a change
Human TRPA1; 10 µM, HEK-293 TRPA1 cells, percentage of predrug baseline
  Change of Ca5 fluorescence, Mean ± SEM, TRPA1 (10 µM): 91 ± 40%
Human TRPA1; 30 µM
  TRPA1 activation at the highest concentration tested: activated TRPA1
  TRPA1 response compared with the highest concentration of cinnamaldehyde (300 µM): significantly smaller
Human TRPA1; 30 µM, one-way ANOVA comparison with cinnamaldehyde 300 µM
  TRPA1 response, Mean± SEM (N): 223 ± 60
Human TRPA1; concentration -4.52288 (log)
  [Ca]i response (change in fluorescence), individual replicates: 16.8824 and 397.614 and 5.373 and 104.863 and 520.454 and 293.014
Human TRPA1; concentration -5 (log)
  [Ca]i response (change in fluorescence), individual replicates: 6.439 and 205.99 and 4.156 and 6.3216 and 170.328 and 155.005
Human TRPA1; concentration -5.52288 (log)
  [Ca]i response (change in fluorescence), individual replicates: 2.263 and 3.295 and 6.759 and 5.886 and 11.1841 and 49.3437
Human TRPA1; concentration -6 (log)
  [Ca]i response (change in fluorescence), individual replicates: 11.4488 and 1.879 and 1.228 and 4.253 and 4.557 and 3.684
Human TRPA1; concentration -6.52288 (log)
  [Ca]i response (change in fluorescence), individual replicates: 9.48 and 8.5131 and 4.1 and 4.971 and 4.357 and 3.125
Human TRPA1; concentration -7 (log)
  [Ca]i response (change in fluorescence), individual replicates: 0.2809 and 4.873 and 5.959 and 5.37 and 6.745 and 2.857
Human TRPA1; highest tested concentration (30 µM) or derived from concentration-response curves (cinnamaldehyde)
  Emax ± SEM % TRPA1 (30 µM): 223 ± 87%
